From ChEMBL document CHEMBL1275440, “In vitro activity of telavancin against resistant gram-positive bacteria” (2008)
Activity calls are given as the source filed them.

Tests used:
[1] = system: Enterococcus faecalis; assay: Antibacterial activity against vancomycin resistant Enterococcus faecalis VanB clinical isolate by broth microdilution method; type: functional
[2] = system: Staphylococcus capitis; assay: Antibacterial activity against methicillin resistant coagulase-negative Staphylococcus capitis clinical isolate assessed as susceptibility level by broth microdilution method; type: functional
[3] = system: Enterococcus faecium; assay: Antibacterial activity against vancomycin resistant Enterococcus faecium VanA clinical isolate assessed as susceptibility level by broth microdilution method; type: functional
[4] = system: Enterococcus faecalis
[5] = Antibacterial activity against methicillin resistant coagulase-negative Staphylococcus hominis subsp. novobiosepticus clinical isolate assessed as susceptibility level by broth microdilution method; type: functional
[6] = system: Enterococcus faecalis; assay: Antibacterial activity against vancomycin resistant Enterococcus faecalis VanA clinical isolate assessed as susceptibility level by broth microdilution method; type: functional
[7] = system: Enterococcus faecium; assay: Antibacterial activity against vancomycin resistant Enterococcus faecium VanB clinical isolate assessed as susceptibility level by broth microdilution method; type: functional
[8] = system: Staphylococcus aureus; assay: Antibacterial activity against methicillin resistant Staphylococcus aureus clinical isolate assessed as susceptibility level by broth microdilution method; type: functional
[9] = system: Staphylococcus saprophyticus; assay: Antibacterial activity against methicillin resistant coagulase-negative Staphylococcus saprophyticus clinical isolate assessed as susceptibility level by broth microdilution method; type: functional
[10] = system: Staphylococcus auricularis; assay: Antibacterial activity against methicillin resistant coagulase-negative Staphylococcus auricularis clinical isolate by broth microdilution method; type: functional
[11] = system: Staphylococcus aureus; assay: Antibacterial activity against methicillin resistant Staphylococcus aureus clinical isolate by broth microdilution method; type: functional; details: for MIC50 / MIC90: Staphylococcus aureus
[12] = system: Staphylococcus saprophyticus; assay: Antibacterial activity against methicillin resistant coagulase-negative Staphylococcus saprophyticus clinical isolate by broth microdilution method; type: functional
[13] = system: Enterococcus faecalis; assay: Antibacterial activity against vancomycin resistant Enterococcus faecalis VanB clinical isolate assessed as susceptibility level by broth microdilution method; type: functional
[14] = system: Enterococcus faecium; assay: Antibacterial activity against vancomycin resistant Enterococcus faecium VanA clinical isolate by broth microdilution method; type: functional
[15] = system: Enterococcus faecium; assay: Antibacterial activity against vancomycin resistant Enterococcus faecium VanB clinical isolate by broth microdilution method; type: functional
[16] = system: Staphylococcus epidermidis; assay: Antibacterial activity against methicillin resistant Staphylococcus epidermidis clinical isolate by broth microdilution method; type: functional
[17] = system: Staphylococcus epidermidis; assay: Antibacterial activity against methicillin resistant Staphylococcus epidermidis clinical isolate assessed as susceptibility level by broth microdilution method; type: functional
[18] = system: Enterococcus faecalis; assay: Antibacterial activity against vancomycin resistant Enterococcus faecalis VanA clinical isolate by broth microdilution method; type: functional
[19] = Antibacterial activity against methicillin resistant coagulase-negative Staphylococcus hominis subsp. novobiosepticus clinical isolate by broth microdilution method; type: functional
[20] = system: Staphylococcus auricularis; assay: Antibacterial activity against methicillin resistant coagulase-negative Staphylococcus auricularis clinical isolate assessed as susceptibility level by broth microdilution method; type: functional
[21] = system: Staphylococcus haemolyticus; assay: Antibacterial activity against methicillin resistant coagulase-negative Staphylococcus haemolyticus clinical isolate assessed as susceptibility level by broth microdilution method; type: functional
[22] = system: Staphylococcus haemolyticus; assay: Antibacterial activity against methicillin resistant coagulase-negative Staphylococcus haemolyticus clinical isolate by broth microdilution method; type: functional
[23] = system: Staphylococcus capitis; assay: Antibacterial activity against methicillin resistant coagulase-negative Staphylococcus capitis clinical isolate by broth microdilution method; type: functional
[24] = system: Streptococcus pneumoniae; assay: Antibacterial activity against multidrug-resistant Streptococcus pneumoniae clinical isolate by broth microdilution method; type: functional
[25] = system: Streptococcus constellatus; assay: Antibacterial activity against Streptococcus constellatus clinical isolate assessed as susceptibility level by broth microdilution method; type: functional
[26] = system: Streptococcus pyogenes; assay: Antibacterial activity against Streptococcus pyogenes group A clinical isolate by broth microdilution method; type: functional
[27] = system: Streptococcus agalactiae; assay: Antibacterial activity against Streptococcus agalactiae group B clinical isolate by broth microdilution method; type: functional
[28] = system: Streptococcus oralis; assay: Antibacterial activity against Streptococcus oralis clinical isolate assessed as susceptibility level by broth microdilution method; type: functional
[29] = system: Streptococcus constellatus; assay: Antibacterial activity against Streptococcus constellatus clinical isolate by broth microdilution method; type: functional
[30] = system: Streptococcus intermedius; assay: Antibacterial activity against Streptococcus intermedius clinical isolate assessed as susceptibility level by broth microdilution method; type: functional
[31] = system: Streptococcus pneumoniae; assay: Antibacterial activity against penicillin intermediate Streptococcus pneumoniae clinical isolate by broth microdilution method; type: functional
[32] = system: Streptococcus viridans; assay: Antibacterial activity against Streptococcus viridans clinical isolate by broth microdilution method; type: functional
[33] = system: Streptococcus agalactiae; assay: Antibacterial activity against Streptococcus agalactiae group B clinical isolate assessed as susceptibility level by broth microdilution method; type: functional
[34] = system: Streptococcus pneumoniae; assay: Antibacterial activity against penicillin resistant Streptococcus pneumoniae clinical isolate by broth microdilution method; type: functional
[35] = system: Streptococcus pyogenes; assay: Antibacterial activity against Streptococcus pyogenes group A clinical isolate assessed as susceptibility level by broth microdilution method; type: functional
[36] = system: Streptococcus oralis; assay: Antibacterial activity against Streptococcus oralis clinical isolate by broth microdilution method; type: functional
[37] = system: Streptococcus intermedius; assay: Antibacterial activity against Streptococcus intermedius clinical isolate by broth microdilution method; type: functional
[38] = system: Streptococcus mitis; assay: Antibacterial activity against Streptococcus mitis clinical isolate by broth microdilution method; type: functional
[39] = system: Streptococcus viridans; assay: Antibacterial activity against Streptococcus viridans clinical isolate assessed as susceptibility level by broth microdilution method; type: functional
[40] = system: Streptococcus mitis; assay: Antibacterial activity against Streptococcus mitis clinical isolate assessed as susceptibility level by broth microdilution method; type: functional

CC(=O)N[C@@H]1[C@H](Oc2c3cc4cc2Oc2ccc(cc2Cl)[C@@H](O[C@@H]2O[C@@H](CO)[C@@H](O)[C@H](O)[C@@H]2NC(C)=O)[C@@H]2NC(=O)[C@H](NC(=O)[C@@H]4NC(=O)[C@H]4NC(=O)[C@@H](Cc5ccc(c(Cl)c5)O3)NC(=O)[C@H](N)c3ccc(O)c(c3)Oc3cc(O)cc4c3)c3ccc(O)c(c3)-c3c(O[C@H]4O[C@H](CO)[C@@H](O)[C@@H](O)[C@@H]4O)cc(O)cc3[C@@H](C(=O)O)NC2=O)O[C@@H](CO)[C@@H](O)[C@@H]1O
0%: Activity [3] | Percent of isolates susceptible [6]
1 µg/mL: MIC90 [11] | MIC90 [15]
4 µg/mL: MIC50 [10] | MIC50 [12] | MIC50 [19] | MIC50 [22] | MIC50 [23]
8 µg/mL: MIC50 [16]
81%: Activity [17]
100%: Activity [7] | Activity [13]
> 128 µg/mL: MIC90 [14] | MIC90 [18]
88%: Activity [2] | Activity [5] | Activity [9] | Activity [20] | Activity [21]
32 µg/mL: MIC90 [10] | MIC90 [12] | MIC90 [19] | MIC90 [22] | MIC90 [23]
0.5 µg/mL: MIC [1] | MIC50 [11] | MIC50 [15]
32%: Activity [8] | Activity [11]
inactive: MIC50 [4] | MIC90 [4]
16 µg/mL: MIC90 [16]
64 µg/mL: MIC50 [14] | MIC50 [18]

CCCCCCCCCC(=O)N[C@@H](Cc1c[nH]c2ccccc12)C(=O)N[C@H](CC(N)=O)C(=O)N[C@@H](CC(=O)O)C(=O)N[C@@H]1C(=O)NCC(=O)N[C@@H](CCCN)C(=O)N[C@@H](CC(=O)O)C(=O)N[C@H](C)C(=O)N[C@@H](CC(=O)O)C(=O)NCC(=O)N[C@H](CO)C(=O)N[C@@H]([C@H](C)CC(=O)O)C(=O)N[C@@H](CC(=O)c2ccccc2N)C(=O)O[C@@H]1C
100%: Activity [2] | Activity [25] | Activity [5] | Percent of isolates susceptible [6] | Activity [28] | Activity [30] | Activity [9] | Activity [13] | Activity [17] | Activity [33] | Activity [35] | Activity [20] | Activity [21] | Activity [39] | Activity [40]
4 µg/mL: MIC90 [14] | MIC90 [15]
93%: Activity [7]
0.12 µg/mL: MIC50 [24] | MIC90 [24] | MIC50 [31] | MIC50 [34] | MIC90 [34]
inactive: MIC50 [4] | MIC90 [4] | MIC50 [29] | MIC90 [29] | MIC50 [32] | MIC90 [32] | MIC50 [36] | MIC90 [36] | MIC50 [37] | MIC90 [37] | MIC50 [38] | MIC90 [38]
≤ 0.03 µg/mL: MIC [26] | MIC50 [26]
1 µg/mL: MIC90 [10] | MIC90 [12] | MIC90 [16] | MIC50 [18] | MIC90 [19] | MIC90 [22] | MIC90 [23]
98%: Activity [3] | Activity [8] | Activity [11]
2 µg/mL: MIC50 [14] | MIC50 [15] | MIC90 [18]
0.5 µg/mL: MIC [1] | MIC90 [11] | MIC90 [31] | MIC50 [16]
0.25 µg/mL: MIC90 [26] | MIC50 [27] | MIC90 [27] | MIC [29] | MIC50 [10] | MIC50 [11] | MIC50 [12] | MIC [32] | MIC50 [19] | MIC [36] | MIC50 [22] | MIC [37] | MIC [38] | MIC50 [23]
